Where a name gives a salt, the structure may show the parent alone. Read-outs that look alike come from different tables or passages of the source.
Tests used:
[1] = system: salicylic acid binding protein; test: Binding of 14C-labelled ligands by partially purified SABP; set-up: species or system tobacco; details: for [14C] radioactivity bound, with protein / [14C] radioactivity bound, without protein: 50 μM ligand, n = 3, SD; for [14C] radioactivity bound, with protein: 3 mg/ml partially purified SABP; for [14C] radioactivity bound, without protein: no protein
Description: Binding was assayed with 3 mg/ml of the
(§1) A key element during the characterization and the purification process is a simple, inexpensive, sensitive and reliable method for determining the salicylic acid binding activity. For this purpose, spin-column exclusion chromatography was used to separate the bound [^14 C] salicylic acid (excluded) from the bulk free salicylic acid (included). Specifically, a 1.5 ml Eppendorf tube was punctured at the tip with a 20-gauge needle and a small amount of glass wool was added to cover the small hole. The tube was then filled with Bio-Gel P-6DG desalting gel (exclusion limit 6 KDa; purchased from Bio-Rad, Melville, N.Y.) which have been swollen in water. An alternative gel is Sephadex G-25 fine (from Pharmacia, Piscataway, N.J.). Excess liquid in the gel was removed and centrifuged for 5 minutes at full speed in a Dynamic centrifuge (Becton Dickinson). The process was then repeated several times until the gel filled the tube. After incubation of an aliquot of the extract or column fractions for 2 hr at 4° C. with 5 μM-20 μM [^14 C salicylic acid] (specifically radioactivity 55 Ci/mol; purchased from New England Nuclear), 150 μl of proteins binding sample was loaded onto the tube column, which was then rapidly centrifuged for 2 minutes at full speed and the solution of proteins and bound [^14 C-salicylic acid] that was excluded from the gel was collected into another tube that had been placed under the tube column during the centrifugation. One hundred microliters of this solution was then used to determine the amount of bound salicylic acid. With this binding assay, characterization of the salicylic acid binding protein can be carried out very rapidly. For example, to determine the inhibitory effect of various salicylic acid analogues on salicylic acid binding activity, these individual analogues were included in the binding mixture containing both the protein and [^14 C] salicylic acid during the 2 hr incubation, and resulting binding activity was determined in comparison to the activity in the absence of these analogues. Likewise, to determine the effect of pH and antioxidants on the binding activity the protein sample was either dialyzed against a large volume of buffers with different pH or antioxidants were added to the protein sample to various concentrations and the resulting binding activities were then determined with the spin-column method in comparison with the activity determined in the absence of these treatments.

[2] = target: T1, catalase activity of SABP (Nicotiana tabacum, UniProt P49319); test: Catalase activity of highly purified SABP (luminol method); type: biochemical, tobacco; details: for inhibition at 1000 µM: 0.05 h, 1 mM SA or analogue, 1 mM H2O2, 500 ng highly purified SABP; for Inhibition of the catalase activity of SABP (in words): compared with SA
T1 sequence (P49319 1-492): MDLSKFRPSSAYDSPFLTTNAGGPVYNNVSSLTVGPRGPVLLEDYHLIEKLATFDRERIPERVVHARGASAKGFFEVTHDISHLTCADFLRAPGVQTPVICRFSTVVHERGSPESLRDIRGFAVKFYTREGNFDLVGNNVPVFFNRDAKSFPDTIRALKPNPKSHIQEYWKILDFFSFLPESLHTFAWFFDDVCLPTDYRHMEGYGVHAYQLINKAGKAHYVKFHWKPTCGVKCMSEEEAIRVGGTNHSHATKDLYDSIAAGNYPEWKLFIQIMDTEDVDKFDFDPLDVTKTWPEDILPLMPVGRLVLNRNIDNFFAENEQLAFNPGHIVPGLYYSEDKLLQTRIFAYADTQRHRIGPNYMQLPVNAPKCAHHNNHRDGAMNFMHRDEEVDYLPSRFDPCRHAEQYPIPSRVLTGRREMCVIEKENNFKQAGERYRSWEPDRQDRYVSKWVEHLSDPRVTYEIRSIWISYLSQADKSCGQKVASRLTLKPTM
Description: Aliquots (50 μl) were removed from the assay mixture at 30 second intervals to assay for amount of H2 O2 remaining using the luminol method as has been described by Warm and Laties, Phytochem. […] The tube was placed in the measuring chamber and assay was initiated with automatic injection into the mixture of 100 μl of 0.5 mM K3 Fe(CN)6 in 0.2N NH4 OH, pH 9.5. Measurements were integrated over 5 second periods. H2 O2 was calculated from the standard curve constructed with known amounts of H2 O2. Rate constants of SABP catalase activity in the presence or absence of SA or its analogues were then calculated based on a first-order mechanism.

[3] = system: salicylic acid binding protein; test: Competitive [14C] salicylic acid binding assay (spin-column); set-up: species or system tobacco; details: [14C] salicylic acid 20 μM; for Inhibition (%) 2×: 40 μM (2×) unlabeled competitor; for Inhibition (%) 10×: 200 μM (10×) unlabeled competitor
Description: The 180 kDa native binding protein isolated was tested for binding affinity and specificity. A competitive assay was established using salicylic acid binding protein fractionated from plants as previously described.
as §1, with “With this binding assay, characterization of the salicylic acid binding protein can be carried out very rapidly.” left out

[4] = system: resistance or PR gene expression; set-up: key: ++: indicates a high level of biological activity; +: indicates a lower level of biological activity; ±: indicates low, but detectable biological activity in some assays; -: indicates no biological activity; details: Table 3; values reported in literature; cited from earlier work
SABP = system: SABP; set-up: concentration or dose not given beside the values; details: Table 6; previously published data (Chen et al. 1993); cited from earlier work
TMV = type: in vivo, tobacco mosaic virus
Description: The SA/SAG valves are given in micrograms per gram fresh weight of leaf tissue and represent averages of values from 3-6 treated plants at 6 days past injection. […] For determination of reduction in lesion size, longitudinal halves of 2 leaves on 3-6 plants were injection with chemicals, and six days later the entire leaf was infected with TMV. Twenty lesions were measured on each half of the leaf seven days post infection; the values given represent the average percent reduction in lesion diameter in the treated leaf half compared to the untreated half.

ascorbate peroxidase = test: Ascorbate peroxidase activity in tobacco leaf extracts; type: biochemical, Nicotiana tabacum cv. Xanthi nc; details: 200 μM compound, corrected for quenching of auto oxidation
Description: […] Two grams of leaves from 6-8 week old tobacco plants (Nicotiana tabacum cv. Xanthi nc) grown at 22° C. in a 14 hr light cycle were homogenized under liquid nitrogen using a pestle and mortar.
To obtain ascorbate peroxidase-containing extracts, the soluble proteins were extracted by grinding the powder in 10 ml of 100 mM potassium phosphate, pH 7, containing […] ascorbate and 1% (weight/volume) polyvinylpyrrolidone, with a small amount of quartz sand. The homogenate was centrifuged at 14,000 g for 5 min. […] The pellet resulting from centrifugation (14,000 g, 15 min.) was resuspended in extraction buffer (100 mM potassium phosphate, pH7, containing 0.25 mM ascorbate and 1% (weight/volume) polyvinylpyrrolidone) and desalted on a PD-10 column (Pharmacia) equilibrated with 50 mM potassium phosphate, pH 7, containing 100 μM ascorbate. The extract was used immediately. […] The amount of protein per assay was 30-50 μg. Oxidation of ascorbate was followed by the decrease in the absorbance at 290 nm.
The values illustrated in FIG. 17 are the mean values for three replicated assays.

Row | Compound | inhibition at 1000 µM [2] | Inhibition (%) 2× [3] | Inhibition (%) 10× [3] | Biological activity [4] | Inhibition (%) [14C]SA binding (SABP) | also measured
1 | CC(=O)Oc1ccccc1[14C](=O)O [[carboxyl-^14 C] acetylsalicylic acid] |  |  |  |  |  | [14C] radioactivity bound, with protein [1]: 397 ± 25 dpm/100 μl; [14C] radioactivity bound, without protein [1]: 112 ± 10 dpm/100 μl
2 | O=C(O)c1cccc(O)c1O [2,3-Dihydroxybenzoic acid] | 15.3% | 1% | 10% | ± | 9% | Inhibition of the catalase activity of SABP (in words) [2]: poor inhibitor
3 | O=C(O)[14c]1ccccc1O [[^14 C] salicylic acid] |  |  |  |  |  | [14C] radioactivity bound, with protein [1]: 989 ± 78 dpm/100 μl; [14C] radioactivity bound, without protein [1]: 89 ± 7 dpm/100 μl
4 | O=C(O)c1cc(O)ccc1O [2,5-Dihydroxybenzoic acid] | 3.2% | 1% | -1% | - | 1% | 
5 | [Acetyl-^14 C] acetylsalicylic acid |  |  |  |  |  | [14C] radioactivity bound, with protein [1]: 96 ± 10 dpm/100 μl; [14C] radioactivity bound, without protein [1]: 104 ± 9 dpm/100 μl
6 | [Ba+2].[Cl-].[Cl-] [BaCl2, barium chloride] |  |  |  |  |  | Reduction in lesion size (%) (TMV; in vivo): 60%
7 | CC(=O)Oc1ccccc1C(=O)O [Acetylsalicylic acid] | 53.6% | 25% | 57% | ++ | 48% | Inhibition of the catalase activity of SABP (in words) [2]: weaker than SA; Binding by the salicylic acid binding protein ([1]; conclusion from Table 4): not actually bound
8 | O=C(O)c1ccc(O)cc1O [2,4-Dihydroxybenzoic acid] | 5.2% | -1% | -2% | - | -4% | 
9 | Cc1ncc(C[n+]2csc(CCO)c2C)c(N)n1 [thiamine-HCl] |  |  |  |  |  | Reduction in lesion size (%) (TMV; in vivo): 71%
10 | O=C(O)c1c(O)cccc1O [2,6-Dihydroxybenzoic acid] | 91.3% | 51% | 91% | ++ | 92% | Inhibition of the catalase activity of SABP (in words) [2]: somewhat stronger; % Inhibition of ascorbate peroxidase (ascorbate peroxidase): 72 ± 8%
11 | O=C(O)c1ccc(O)cc1 [4-Hydroxybenzoic acid] | 4.1% | 1% | -2% | - | -2% | % Inhibition of ascorbate peroxidase (ascorbate peroxidase): 0 ± 6%
12 | CCC(N)C(=O)O (stereo not drawn) [α-amino butyric acid] |  |  |  |  |  | Reduction in lesion size (%) (TMV; TMV infection six days after injection, lesions measured seven days post infection, treated vs untreated leaf half): 63%

— patent publication US5989846A, “Assays to identify inducers of plant defense resistance” (Rutgers, The State University of New Jersey, priority 1995, dated 1999)
